Values of other authors in patent US20150209399A1, “Methods For Enhacement Of Dehydroepiandrosterone Using Green Coffee Bean Extract” (Applied Food Sciences, Inc., priority 2013, published 2015).

What was measured:
[1] = human, in vivo
[2] = 300 mg DHEA per day orally, second week; baseline 316.2
[3] = tested on: human coxsackievirus B4 strain
[4] = tested on: platelet aggregation; conditions: four of the five test subjects who received DHEA; second week

Molecule	half-life [1]	mean serum DHEA-S level, DHEA group [2] [µg/dL]	mortality of infected animals treated with DHEA ([3]; 100,000 plaque forming units/animal, about 90% mortality in infected animals) [%]	elevation in the number of antibody forming cells ([3]; within the animal) [%]	rate of platelet aggregation [4]
chlorogenic acids	less than 12 hours				
C[C@]12CCC(O)CC1=CC[C@@H]1[C@@H]2CC[C@]2(C)C(=O)CC[C@@H]12 (some centres unmarked) [DHEA, 3-hydroxyandrost-5-en-17-one]		1451.9 ± 56.7	37	80	slower rate of aggregation
